Measured values taken from ChEMBL document CHEMBL3301546, “MMV Malaria Box yeast growth screening”.

Tests used:
Format in all cases: functional
Saccharomyces cerevisiae [1] = experiment: (§1) MMV: Growth assays were conducted using the prototrophic S. cerevisiae strain JHY222. Each MMV compound (0.1 mM) was tested in rich media containing dextrose as a carbon source (Yeast Extract, Peptone, Dextrose; YPD). The growth rate in the presence of each MMV compound was calculated as follows: (i) the first 10 OD readings were averaged and subtracted from all OD readings of the corresponding curve to set the baseline of the growth curve to zero, and (ii) the area under the curve (AUC) was then calculated as the sum of all OD readings. […] A relative growth value was calculated as follows: AUC(DRUG) - AUC(DMSO)/AUC(DMSO); where AUC(DMSO) represents growth measured in a DMSO control well that was on the same microtiter plate of the drug-treated culture.
Saccharomyces cerevisiae [2] = experiment: as §1, with “minimal” for “rich”, “Nitrogen Base,” for “Extract, Peptone,”, “YNBD).” for “YPD).”
Saccharomyces cerevisiae [3] = experiment: as §1, with “minimal” for “rich”, “ethanol and glycerol” for “dextrose”, “as” for “as a”, “sources” for “source”, “Nitrogen Base, Ethanol, Glycerol; YNBEG).” for “Extract, Peptone, Dextrose; YPD).”

Compound | Relative Growth (Saccharomyces cerevisiae [1]) | Relative Growth (Saccharomyces cerevisiae [2]) | Relative Growth (Saccharomyces cerevisiae [3])
COc1nc(Nc2ccc(C(C)C)cc2)nc(OC)n1 | -0.007 | 0.0529 | 0.0254
CCN(CC)CCCNc1nc(-c2ccc(Cl)cc2)nc2ccccc12 | -0.029 | 0.0809 | -0.0397
CCOC(=O)c1cnc2ccc(OC)cc2c1Nc1ccc(N2CCN(C)CC2)cc1 | -0.0196 | 0.0562 | -0.1675
O=C(Nc1ccc(N2CCN(Cc3ccccc3)CC2)cc1)c1cccs1.O=C(O)C(F)(F)F | -0.129 | -0.0637 | -0.0052
CCOc1ccc(-c2nonc2NC(=O)c2cccc(C)c2)cc1OCC | 0.0084 | 0.0895 | -0.1269
CCOC(=O)c1cnc2c(C)cc(C)cc2c1Nc1ccc(OC)c(OC)c1 | -0.1039 | 0.0948 | -0.222
CC(O)(c1ccc(Cl)cc1)C(CN1CCCCC1)c1ccccc1.Cl (configuration not stated) | 0.0259 | -0.0009 | 0.0803
Oc1ccc(Cl)cc1CNc1nc2ccccc2[nH]1 | -0.0141 | -0.0661 | -0.0134
COc1ccc(-c2cc3c(SCC(=O)Nc4cc(C(F)(F)F)ccc4Cl)nccn3n2)cc1 | -0.0822 | 0.0829 | -0.1809
COc1ccc(Nc2nc(NCc3ccccc3)c3ccccc3n2)cc1 | 0.0094 | 0.0331 | -0.0366
COc1ccc(C2c3ccc4ccccc4c3Oc3ncn(CCCN(C)C)c(=N)c32)cc1 (configuration not stated) | -0.012 | -0.0503 | -0.0587
CCOc1cc(Cl)c(C(C)NC(=O)c2ccccc2)cc1OCC (configuration not stated) | 0.0477 | -0.0221 | -0.1365
COc1ccc2c(=O)cc(C(Cl)(Cl)Cl)oc2c1 | 0.0032 | 0.0555 | -0.0182
CCCCOc1ccc(C(=O)Nc2cc(C)on2)cc1 | -0.0346 | -0.0653 | -0.1988
COc1cc(-c2nc(-c3ccc(Sc4ccccc4)cc3)c(-c3ccccc3)[nH]2)cc(OC)c1O | -0.0314 | -0.0129 | -0.2127
COc1ccc(/C=C2/SC(=Nc3ccccc3)NC2=O)cc1 | -0.1491 | -0.223 | -0.9641
COc1cc(SC)ccc1C(=O)N1CCCC(C)C1 (configuration not stated) | -0.0213 | 0.0716 | -0.0182
Oc1ccc(Br)cc1CN1CCN(Cc2ccc(Cl)cc2)CC1 | 0.004 | -0.144 | -0.4008
CN(C)c1ccc(C=Cc2nc(=O)c3ccccc3o2)cc1 | -0.0054 | -0.0045 | 0.0299
COC(=O)c1ccc(Cl)c2c1C1C=CCC1C(c1cccc3ccccc13)N2 (configuration not stated) | -0.0285 | 0.053 | 0.0199
CCOc1ccc(CN2CCN(CC(O)COc3ccc(OCC(O)CN4CCN(Cc5ccc(OCC)cc5)CC4)cc3)CC2)cc1 (configuration not stated) | -0.0814 | -0.1042 | -0.2934
CCN1CCCC1CNc1[nH]cnc2c3cc(Cl)ccc3nc1-2 (configuration not stated) | -0.0942 | -0.0942 | -0.3246

Compound | Relative Growth (Saccharomyces cerevisiae [1]) | Relative Growth (Saccharomyces cerevisiae [2]) | Relative Growth (Saccharomyces cerevisiae [3])
COCCNCC(O)Cn1c2ccc(Cl)cc2c2cc(Cl)ccc21 (configuration not stated) | -0.9998 | -0.1893 | -0.4771
Cc1nc2ccccc2c(O)c1CC=C(Cl)Cl | -0.1226 | -0.0687 | -1.0138
Cc1cc(=O)oc2c1ccc1oc(C(=O)c3ccccc3)c(C)c12 | 0.0119 | -0.1287 | -0.3574
O=C(Nc1ccc(Cl)cc1)N1CCN(c2ccc3nncn3n2)CC1 | 0.0021 | -0.0344 | 0.053
CCCCc1c(CCC)c(=N)c2ccccc2n1C.I | -0.0798 | 0.0105 | 0.0643
OC1=C2C(=Nc3ccccc3SC2c2ccccc2)c2ccccc21 (configuration not stated) | -0.0053 | -0.1585 | -0.0669
COc1ccc(Br)cc1C1Nc2ccc3ccccc3c2C2=C1C(=O)CC(c1ccccc1)C2 (configuration not stated) | -0.0736 | 0.0368 | -0.105
CCCCN(CCCC)S(=O)(=O)c1ccc(NC(=O)c2ccco2)cc1 | -0.9715 | -0.9663 | -0.9939
Cc1sc(NC(=O)c2ccccc2)c(C(c2cccs2)N2CCN(c3ccccc3)CC2)c1C (configuration not stated) | 0.0207 | -0.0211 | 0.0234
COc1ccc(C2C(C(=O)Nc3cccc(OC)c3)c3ccccc3C(=O)N2C2CCCCC2)cc1 (configuration not stated) | -0.0663 | 0.0321 | -0.1595
CCOC(=O)C1=C(C)N=c2sc(=Cc3ccccc3O)c(=O)n2C1c1ccc(OC)c2ccccc12 (configuration not stated) | -0.9923 | 0.0217 | 0.0525
O=C(CCc1ccco1)NC1CCN(CC2(c3ccc(Cl)cc3)CCC2)CC1 | -0.0017 | 0.003 | 0.0483
CCOC(=O)c1cnc2ccc(OC)cc2c1NCc1ccccc1 | -0.0244 | -0.0203 | -0.1303
CC1CC2=C(CC1CNCCCN(C)C)C(C)(C)CCC2 (configuration not stated) | 0.0011 | 0.0086 | -0.1687
CC(C)(C)CC(C)(C)NCC(O)COc1ccc2c(c1)CCC2.Cl (configuration not stated) | -0.08 | -0.0891 | -0.1886
COc1ccc(CN2CCN(Cc3ccccc3)CC2)c(O)c1 | -0.0119 | 0.0478 | 0.0718
CCOc1ccc(C2N(C)c3ccccc3N2C)cc1 | -0.6451 | -1.0114 | -1.002
CCN(Cc1ccccc1)C1CCN(Cc2cc(Br)ccc2O)CC1.O=C(O)C(=O)O | -0.0428 | 0.0515 | 0.0185
CC(=O)NCCc1nc2ccccc2n1Cc1ccc(C(C)C)cc1 | 0.0716 | -0.0851 | 0.1937
c1ccc(CNc2nc(Nc3ccccc3)nc3ccccc23)cc1 | -0.0158 | -0.1327 | -0.0499
COc1ccc2sc(N(Cc3cccnc3)C(=O)c3ccc(C#N)cc3)nc2c1 | -0.0469 | -0.1064 | -0.5371
CC(Oc1ccc(NC(=O)c2cccs2)cc1)C(=O)c1ccc(Cl)cc1 (configuration not stated) | 0.0426 | 0.1664 | 0.0184
